Where “and” joins values, the source holds several entries; their conditions need not be identical. Equal values may be shown once. Read-outs that look alike come from different tables or passages of the source.
Test system: Klebsiella pneumoniae ATCC 13883 (GN_003 / GN_004)
Experiment: Synergy of cannabidiol with cell-wall disrupting agent (CBD MIC in combination, FICI)
Format: cell-based
Settings: for FICI: calculated using MIC of 256 μg/mL for cannabidiol; for MIC: Klebsiella pneumoniae
Experimental: The compounds were stored short term at 4° C.
Analysis was performed using Microsoft Excel.

`C=C(C)C1CCC(C)=CC1c1c(O)cc(CCCCC)cc1O` (stereo not drawn) [Cannabidiol, 2-[3-methyl-6-(1-methylethenyl)-2-cyclohexen-1-yl]-5-pentyl-1,3-benzenediol] was tested, and the “CBD MIC with Ceftazidime” value (Ceftazidime at 8 μg/mL (Table 66), Klebsiella pneumoniae ATCC 700603) was over 32 mg/L, the “CBD MIC with Ceftazidime” value (Ceftazidime at 16 μg/mL (Table 66), Klebsiella pneumoniae ATCC 700603) was over 32 mg/L and the “CBD MIC with Ceftazidime” value (Ceftazidime at 32 μg/mL (Table 66), Klebsiella pneumoniae ATCC 700603) was over 32 mg/L. For the same compound, the “CBD MIC with Ceftazidime” value (Ceftazidime at 64 μg/mL (Table 66), Klebsiella pneumoniae ATCC 700603) was 0.001 mg/L, the “CBD MIC with Ceftazidime” value (Ceftazidime at 128 μg/mL (Table 66), Klebsiella pneumoniae ATCC 700603) was 0.001 mg/L and the “CBD MIC with Cefuroxime” value (Cefuroxime at 32 μg/mL, Klebsiella pneumoniae ATCC 700603) was 0.001 mg/L. The “CBD MIC with Colistin” value (Colistin at 0.5 μg/mL, Klebsiella pneumoniae ATCC 700603) was 0.001 mg/L, the “CBD MIC with Colistin” value (Colistin at 1 μg/mL, Klebsiella pneumoniae ATCC 700603) was 0.001 mg/L and the “activity of cannabidiol combined with octapeptin MCC_006442” value (Example 4) was “effective”. The “activity of cannabidiol in combination with octapeptin MCC_006442” value (Example 7) was “effective”, the “activity of cannabidiol combined with cefuroxime” value (Example 12) was “effective” and the “activity of cannabidiol combined with colistin” value (Example 14) was “effective”. The “activity of cannabidiol combined with octapeptin MCC_006442” value (Example 15) was “effective”, the “activity of cannabidiol combined with ceftazidime” value (Example 16) was “effective” and the “activity of cannabidiol combined with cefotetan” value (Example 17) was “effective”. For the same compound, the “activity of cannabidiol combined with aztreonam” value (Example 18) was “effective”, the “activity of cannabidiol combined with octapeptin C4” value (Example 21) was “effective” and the “activity of cannabidiol in combination with Spero Potentiator SPR741” value (Example 22) was “effective”. The “activity of cannabidiol in combination with octapeptin FADDI-287” value (Example 23) was “effective”, the “activity of cannabidiol in combination with MCC_8980” value (Example 24) was “effective” and the FICI range (Klebsiella pneumoniae ATCC 700603 (so in the source), CBD with FADDI-287, MIC table (Table 95)) was 0.16-4. For the same compound, the FICI range (Klebsiella pneumoniae ATCC 700603 (so in the source), CBD with FADDI-287, Synergy table (Table 97)) was 0.16-0.5, the FICI range (Klebsiella pneumoniae ATCC 700603 (so in the source), CBD with MCC_8980, MIC table (Table 99), listed as CBD) was 0.31-1.13 and 0.38-1.13 and the FICI range (Klebsiella pneumoniae ATCC 700603 (so in the source), CBD with MCC_8980, Synergy table (Table 101), listed as CBD) was 0.31 and 0.38. The FICI range (Klebsiella pneumoniae ATCC 700603 (so in the source), CBD with Spero Potentiator SPR741, MIC table (Table 91), listed as CBD) was 0.08-1.03 and 0.09-1.03 and 0.16-1.06 and 0.14-1.06, the FICI range (Klebsiella pneumoniae ATCC 700603 (so in the source), CBD with Spero Potentiator SPR741, Synergy table (Table 93), listed as CBD) was 0.08-0.27 and 0.09-0.27 and 0.16-0.27 and 0.14-0.26 and the “CBD MIC with MCC_8980” value (Klebsiella pneumoniae ATCC 700603 (so in the source), MCC_8980 at 16 μg/mL, listed as CBD) was 32 mg/L. For the same compound, the “CBD MIC with Spero Potentiator SPR741” value (Klebsiella pneumoniae ATCC 700603 (so in the source), SPR741 at 8 μg/mL, listed as CBD) was 4 mg/L and 8 mg/L, the FICI (Klebsiella pneumoniae ATCC 700603 (so in the source), cannabidiol with FADDI-287 at 0.25 μg/mL) was 0.2539 and the FICI (Klebsiella pneumoniae ATCC 700603 (so in the source), cannabidiol with FADDI-287 at 0.5 μg/mL) was 0.5. It also gave an FICI (Klebsiella pneumoniae ATCC 700603 (so in the source), cannabidiol with FADDI-287 at 1 μg/mL) of 1, an FICI (Klebsiella pneumoniae ATCC 700603 (so in the source), cannabidiol with FADDI-287 at 2 μg/mL) of 2 and an FICI (Klebsiella pneumoniae ATCC 700603 (so in the source), cannabidiol with FADDI-287 at 4 μg/mL) of 4. For the same compound, the FICI (Klebsiella pneumoniae ATCC 700603 (so in the source), cannabidiol with MCC_8980 at 1 μg/mL) was 1.016, the FICI (Klebsiella pneumoniae ATCC 700603 (so in the source), cannabidiol with MCC_8980 at 2 μg/mL) was 1.031 and the FICI (Klebsiella pneumoniae ATCC 700603 (so in the source), cannabidiol with MCC_8980 at 4 μg/mL) was 1.0625. For the same compound, the FICI (Klebsiella pneumoniae ATCC 700603 (so in the source), cannabidiol with MCC_8980 at 8 μg/mL) was 1.125, the FICI (Klebsiella pneumoniae ATCC 700603 (so in the source), cannabidiol with MCC_8980 at 16 μg/mL) was 0.375 and 0.3125 and the FICI (Klebsiella pneumoniae ATCC 700603 (so in the source), cannabidiol with SPR741 at 0.5 μg/mL) was 1.004. For the same compound, the FICI (Klebsiella pneumoniae ATCC 700603 (so in the source), cannabidiol with SPR741 at 1 μg/mL) was 1.016, the FICI (Klebsiella pneumoniae ATCC 700603 (so in the source), cannabidiol with SPR741 at 2 μg/mL) was 1.031 and the FICI (Klebsiella pneumoniae ATCC 700603 (so in the source), cannabidiol with SPR741 at 2 μg/mL, listed as cannabidiol) was 1.016. For the same compound, the FICI (Klebsiella pneumoniae ATCC 700603 (so in the source), cannabidiol with SPR741 at 4 μg/mL) was 1.031 and 1.0625, the FICI (Klebsiella pneumoniae ATCC 700603 (so in the source), cannabidiol with SPR741 at 8 μg/mL) was 0.09375 and 0.1406 and 0.07812 and the MIC (ATCC13883, read-out: CBD MIC with octapeptin MCC_006442 at concentration 2 μg/mL, Example 4, GN_003) was 1 mg/L. For the same compound, the MIC (ATCC13883, read-out: CBD MIC with octapeptin MCC_006442 at concentration 4 μg/mL, Example 4, GN_003) was 0.25 mg/L, the MIC (ATCC 13883 / ATCC 700603, Klebsiella pneumoniae ATCC 700603 (so in the source), FADDI-287 at 0.25 μg/mL, read-out: CBD MIC with FADDI-287) was 1 mg/L and the MIC (ATCC 13883 / ATCC 700603, Klebsiella pneumoniae ATCC 700603 (so in the source), FADDI-287 at 0.5 μg/mL, read-out: CBD MIC with FADDI-287) was 0.001 mg/L. The MIC (ATCC 13883 / ATCC 700603, Klebsiella pneumoniae ATCC 700603 (so in the source), FADDI-287 at 1 μg/mL, read-out: CBD MIC with FADDI-287) was 0.001 mg/L, the MIC (ATCC 13883 / ATCC 700603, Klebsiella pneumoniae ATCC 700603 (so in the source), FADDI-287 at 2 μg/mL, read-out: CBD MIC with FADDI-287) was 0.001 mg/L and the MIC (ATCC 13883 / ATCC 700603, Klebsiella pneumoniae ATCC 700603 (so in the source), FADDI-287 at 4 μg/mL, read-out: CBD MIC with FADDI-287) was 0.001 mg/L. For the same compound, the MIC (ATCC 13883 / ATCC 700603, Klebsiella pneumoniae ATCC 700603 (so in the source), MCC_8980 at 16 μg/mL, read-out: CBD MIC with MCC_8980) was 16 mg/L, the MIC (ATCC 13883 / ATCC 700603, Klebsiella pneumoniae ATCC 700603 (so in the source), Spero SPR206 at 0.007 μg/mL, read-out: CBD MIC with Spero SPR206) was at least 32 mg/L and the MIC (ATCC 13883 / ATCC 700603, Klebsiella pneumoniae ATCC 700603 (so in the source), Spero SPR206 at 0.015 μg/mL, read-out: CBD MIC with Spero SPR206) was at least 32 mg/L. For the same compound, the MIC (ATCC 13883 / ATCC 700603, Klebsiella pneumoniae ATCC 700603 (so in the source), Spero SPR206 at 0.031 μg/mL, read-out: CBD MIC with Spero SPR206) was at least 32 mg/L, the MIC (ATCC 13883 / ATCC 700603, Klebsiella pneumoniae ATCC 700603 (so in the source), Spero SPR206 at 0.062 μg/mL, read-out: CBD MIC with Spero SPR206) was at least 32 mg/L and the MIC (ATCC 13883 / ATCC 700603, Klebsiella pneumoniae ATCC 700603 (so in the source), Spero SPR206 at 4 μg/mL, read-out: CBD MIC with Spero SPR206) was 0.001 mg/L. It also gave an MIC (ATCC 13883 / ATCC 700603, MCC_6442 at 2 μg/mL, Klebsiella pneumoniae ATCC 700603, read-out: CBD MIC with MCC_6442) of 1 mg/L, an MIC (ATCC 13883 / ATCC 700603, MCC_6442 at 4 μg/mL, Klebsiella pneumoniae ATCC 700603, read-out: CBD MIC with MCC_6442) of 0.25 mg/L and an MIC (ATCC13883 / ATCC700603, read-out: CBD MIC with FADDI-287, Klebsiella pneumoniae ATCC 700603 (so in the source), FADDI-287 at […]) of 8 mg/L.

Source: US20230013669A1, “Antibacterial Treatment Using a Cannabinoid and an Active Agent” (priority 2019, published 2023)
